Reference: US20220313701A1, “MODULATORS OF TREX1” (Constellation Pharmaceuticals, Inc., priority 2019, published 2022)

Tests used:
[1] = target: T1, full length human TREX1 (Homo sapiens, UniProt Q9NSU2); assay: TREX1 Biochemical Assay (fluorescence assay, degradation of dsDNA substrate); settings: 150 pM TREX1, 60 nM dsDNA substrate, 25 minutes at room temperature
T1 construct: N-terminally His-Tev tagged full length human TREX1; His-Tev (His tag with TEV site) (N); made in house; host or cells: E. coli
T1 sequence (Q9NSU2 1-314): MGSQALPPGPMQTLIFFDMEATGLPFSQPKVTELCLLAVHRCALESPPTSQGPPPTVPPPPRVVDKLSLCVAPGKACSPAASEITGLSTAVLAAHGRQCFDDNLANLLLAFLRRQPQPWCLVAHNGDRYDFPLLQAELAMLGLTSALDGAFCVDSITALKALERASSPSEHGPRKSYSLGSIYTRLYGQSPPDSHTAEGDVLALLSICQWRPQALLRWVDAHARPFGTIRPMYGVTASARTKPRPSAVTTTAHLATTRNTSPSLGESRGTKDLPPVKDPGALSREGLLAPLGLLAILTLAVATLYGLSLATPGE
Experimental: Degradation of the dsDNA liberates free fluorophore to produce a fluorescent signal. Specifically, 7.5 μL of N-terminally His-Tev tagged full length human TREX1 (expressed in E. coli and purified in house) in reaction buffer (50 mM Tris (pH 7.4), 150 mM NaCl, 2 mM DTT, 0.1 mg/mL BSA, 0.01% (v/v) Tween-20 and either 100 mM MgCl2) was added to a 384-well Black ProxiPlate Plus (Perkin Elmer) which already contained compound (150 nL) at varying concentrations as a 10 point dose-response in DMSO. To this was added 7.5 μL of dsDNA substrate (Strand A: 5′ TEX615/GCT AGG CAG 3′; Strand B: 5′ CTG CCT AGC/IAbRQSp (Integrated DNA Technologies)) in reaction buffer. Final concentrations were 150 pM TREX1, 60 nM dsDNA substrate in reaction buffer with 1.0% DMSO (v/v). After 25 minutes at room temperature, reactions were quenched by the addition of 5 μL of stop buffer (same as reaction buffer plus 200 mM EDTA). Final concentrations in the quenched reaction were 112.5 pM TREX1, 45 nM DNA and 50 mM EDTA in a volume of 20 μL. After a 5-minute incubation at room temperature, plates were read in a laser sourced Envision (Perkin-Elmer), measuring fluorescence at 615 nm following excitation w/570 nm light. IC50 values were calculated by comparing the measured fluorescence at 615 nm ratio relative to control wells pre-quenched w/stop buffer (100% inhibition) and no inhibitor (0% inhibition) controls as using non-linear least square four parameter fits and either Genedata or GraphPad Prism (GraphPad Software, Inc.).

[2] = target: T2, human TREX2 (residues M44-A279) (Homo sapiens, UniProt Q9BQ50); assay: TREX2 Biochemical Assay (fluorescence assay, degradation of dsDNA substrate); settings: 2.5 nM TREX2, 60 nM dsDNA substrate, 25 minutes at room temperature
T2 construct: human TREX2 (residues M44-A279, expressed in E. coli); His-Tev (His tag with TEV site) (N); made in house; host or cells: E. coli
T2 sequence (Q9BQ50 44-279 isoform Q9BQ50-1): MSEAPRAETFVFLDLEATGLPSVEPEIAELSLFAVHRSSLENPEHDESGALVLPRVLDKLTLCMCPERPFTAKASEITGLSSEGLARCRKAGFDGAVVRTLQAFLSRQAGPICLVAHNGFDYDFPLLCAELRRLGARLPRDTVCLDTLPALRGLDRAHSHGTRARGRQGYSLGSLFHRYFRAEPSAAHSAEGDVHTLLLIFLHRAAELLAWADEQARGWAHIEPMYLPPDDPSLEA
Experimental: Degradation of the dsDNA liberates free fluorophore to produce a fluorescent signal. Specifically, 7.5 μL of N-terminally His-Tev tagged human TREX2 (residues M44-A279, expressed in E. coli and purified in house) in reaction buffer (50 mM Tris (pH 7.4), 150 mM NaCl, 2 mM DTT, 0.1 mg/mL BSA, 0.01% (v/v) Tween-20 and 100 mM MgCl2) was added to a 384-well Black ProxiPlate Plus (Perkin Elmer) which already contained compound (150 nL) at varying concentrations as a 10 point dose-response in DMSO. To this was added 7.5 μL of dsDNA substrate (Strand A: 5′ TEX615/GCT AGG CAG 3′; Strand B: 5′ CTG CCT AGC/IAbRQSp (IDT)) in reaction buffer. Final concentrations were 2.5 nM TREX2, 60 nM dsDNA substrate in reaction buffer with 1.0% DMSO (v/v). After 25 minutes at room temperature, reactions were quenched by the addition of 5 μL of stop buffer (same as reaction buffer plus 200 mM EDTA). Final concentrations in the quenched reaction mixture were […] TREX2, 45 nM DNA and 50 mM EDTA in a volume of 20 μL. After a 5-minute incubation at room temperature, plates were read in a laser sourced Envision (Perkin-Elmer), measuring fluorescence at 615 nm following excitation w/570 nm light. IC50 values were calculated by comparing the measured fluorescence at 615 nm ratio relative to control wells pre-quenched w/stop buffer (100% inhibition) and no inhibitor (0% inhibition) controls as using non-linear least square four parameter fits and either Genedata or GraphPad Prism (GraphPad Software, Inc.).

Row | IC50 [1] [µM] | IC50 [2] [µM] | Structure (SMILES)
1 | > 10 | > 100 | N#Cc1cccc(-c2cncc(N3CCC(O)(c4ccc(F)cc4)CC3)n2)c1 [Example 24, 3-(6-(4-(4-fluorophenyl)-4-hydroxypiperidin-1-yl)pyrazin-2-yl)benzonitrile]
2 | 1 to 10 | > 100 | OC1(c2ccc(F)cc2)CCN(c2cncc(-c3ccccc3F)n2)CC1 [Example 25, 4-(4-fluorophenyl)-1-(6-(2-fluorophenyl)pyrazin-2-yl)piperidin-4-ol]
3 | 1 to 10 | > 100 | OC1(c2ccc(F)cc2)CCN(c2cncc(-c3cccc(F)c3)n2)CC1 [Example 26, 4-(4-fluorophenyl)-1-(6-(3-fluorophenyl)pyrazin-2-yl)piperidin-4-ol]
4 | > 10 | > 100 | OC1(c2ccc(F)cc2)CCN(c2cncc(-c3ccc(F)cc3)n2)CC1 [Example 27, 4-(4-fluorophenyl)-1-(6-(4-fluorophenyl)pyrazin-2-yl)piperidin-4-ol]
5 | > 10 | > 100 | COc1ccccc1-c1cncc(N2CCC(O)(c3ccc(F)cc3)CC2)n1 [Example 28, 4-(4-fluorophenyl)-1-(6-(2-methoxyphenyl)pyrazin-2-yl)piperidin-4-ol]
6 | > 10 | > 100 | COc1ccc(-c2cncc(N3CCC(O)(c4ccc(F)cc4)CC3)n2)cc1 [Example 29, 4-(4-fluorophenyl)-1-(6-(4-methoxyphenyl)pyrazin-2-yl)piperidin-4-ol]
7 | 1 to 10 | > 100 | N#Cc1ccc(-c2cncc(N3CCC(O)(c4ccc(F)cc4)CC3)n2)cc1 [Example 30, 4-(6-(4-(4-fluorophenyl)-4-hydroxypiperidin-1-yl)pyrazin-2-yl)benzonitrile]
8 | 1 to 10 | > 100 | OC1(c2ccc(F)cc2)CCN(c2cncc(-c3ccccc3C(F)(F)F)n2)CC1 [Example 31, 4-(4-fluorophenyl)-1-(6-(2-(trifluoromethyl)phenyl)pyrazin-2-yl)piperidin-4-ol]
9 | > 10 | > 100 | OC1(c2ccc(F)cc2)CCN(c2cncc(-c3cccc(C(F)(F)F)c3)n2)CC1 [Example 32, 4-(4-fluorophenyl)-1-(6-(3-(trifluoromethyl)phenyl)pyrazin-2-yl)piperidin-4-ol]
10 | > 10 | > 100 | OC1(c2ccc(F)cc2)CCN(c2cncc(-c3ccc(C(F)(F)F)cc3)n2)CC1 [Example 33, 4-(4-fluorophenyl)-1-(6-(4-(trifluoromethyl)phenyl)pyrazin-2-yl)piperidin-4-ol]
11 | 1 to 10 | > 100 | Cc1ccc(-c2cncc(N3CCC(O)(c4ccc(F)cc4)CC3)n2)cc1 [Example 34, 4-(4-fluorophenyl)-1-(6-(p-tolyl)pyrazin-2-yl)piperidin-4-ol]
12 | 1 to 10 | > 100 | OC1(c2ccc(F)cc2)CCN(c2cncc(-c3ccncc3)n2)CC1 [Example 35, 4-(4-fluorophenyl)-1-(6-(pyridin-4-yl)pyrazin-2-yl)piperidin-4-ol]
13 | 0.1 to 1 | > 100 | Cn1cc(-c2nccc(N3CCC(O)(c4ccc(F)cc4)CC3)n2)cn1 [Example 36, 4-(4-fluorophenyl)-1-(2-(1-methyl-1H-pyrazol-4-yl)pyrimidin-4-yl)piperidin-4-ol]
14 | 1 to 10 | > 100 | Cn1cc(-c2ccnc(N3CCC(O)(c4ccc(F)cc4)CC3)n2)cn1 [Example 37, 4-(4-fluorophenyl)-1-(4-(1-methyl-1H-pyrazol-4-yl)pyrimidin-2-yl)piperidin-4-ol]
15 | 1 to 10 | > 100 | COC(=O)c1cc(-c2cnn(C)c2)nc(N2CCC(O)(c3ccc(F)cc3)CC2)c1 [Example 38, methyl 2-(4-(4-fluorophenyl)-4-hydroxypiperidin-1-yl)-6-(1-methyl-1H-pyrazol-4-yl)isonicotinate]
16 | < 0.1 | 10 to 100 | Cc1nn(C)cc1-c1cc(C(N)=O)cc(N2CCC(O)(c3ccc(F)c(F)c3)CC2)n1 [Example 39, 2-(4-(3,4-difluorophenyl)-4-hydroxypiperidin-1-yl)-6-(1,3-dimethyl-1H-pyrazol-4-yl)isonicotinamide]
17 | 0.1 to 1 | > 100 | Cc1nn(C)cc1-c1cc(C(=O)NCc2ccccc2)cc(N2CCC(O)(c3ccc(F)c(F)c3)CC2)n1 [Example 40, N-benzyl-2-(4-(3,4-difluorophenyl)-4-hydroxypiperidin-1-yl)-6-(1,3-dimethyl-1H-pyrazol-4-yl)isonicotinamide]
18 | < 0.1 | 10 to 100 | Cc1nn(C)cc1-c1cc(C(=O)N2CCCCC2)cc(N2CCC(O)(c3ccc(F)c(F)c3)CC2)n1 [Example 41, (2-(4-(3,4-difluorophenyl)-4-hydroxypiperidin-1-yl)-6-(1,3-dimethyl-1H-pyrazol-4-yl)pyridin-4-yl)(piperidin-1-yl)methanone]
19 | 1 to 10 | > 100 | Cc1nn(C)cc1-c1cccc(N2CCC(O)(c3ccc(F)c(F)c3)CC2)n1 [Example 42, 4-(3,4-difluorophenyl)-1-(6-(1,3-dimethyl-1H-pyrazol-4-yl)pyridin-2-yl)piperidin-4-ol]
20 | 0.1 to 1 | > 100 | Cc1cc(-c2cn(C)nc2C)nc(N2CCC(O)(c3ccc(F)c(F)c3)CC2)c1 [Example 43]
21 | 0.1 to 1 | 10 to 100 | Cc1nn(C)cc1-c1cc(CO)cc(N2CCC(O)(c3ccc(F)c(F)c3)CC2)n1 [Example 44, 4-(3,4-difluorophenyl)-1-(6-(1,3-dimethyl-1H-pyrazol-4-yl)-4-(hydroxymethyl)pyridin-2-yl)piperidin-4-ol]
22 | < 0.1 | 10 to 100 | Cc1nn(C)cc1-c1cc(C(C)(C)O)cc(N2CCC(O)(c3ccc(F)c(F)c3)CC2)n1 [Example 45, 4-(3,4-difluorophenyl)-1-(6-(1,3-dimethyl-1H-pyrazol-4-yl)-4-(2-hydroxypropan-2-yl)pyridin-2-yl)piperidin-4-ol]
23 | 0.1 to 1 | > 100 | Cc1nn(C)cc1-c1cc(C(F)(F)F)cc(N2CCC(O)(c3ccc(F)c(F)c3)CC2)n1 [Example 46, 4-(3,4-difluorophenyl)-1-(6-(1,3-dimethyl-1H-pyrazol-4-yl)-4-(trifluoromethyl)pyridin-2-yl)piperidin-4-ol]
24 | < 0.1 | 10 to 100 | Cc1nn(C)cc1-c1cncc(N2CCC(O)(c3cc(F)c(F)c(F)c3)CC2)n1 [Example 47, 1-(6-(1,3-dimethyl-1H-pyrazol-4-yl)pyrazin-2-yl)-4-(3,4,5-trifluorophenyl)piperidin-4-ol]
